From the supplement of paper PMC9265050, “Inhibition of RNA Binding in SND1 Increases the Levels of miR-1-3p and Sensitizes Cancer Cells to Navitoclax” (Cancers, 2022) come the findings set out here.

This assay has as its system SW480. The assay is described as follows: drug sensitivity score (DSS, integrated dose-response area); higher = more sensitive (stronger viability reduction); extreme values may be limits of the assay. Summed up: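 Viability of induced SW480 cells carrying control or SND1-targeting shRNA was read by CellTiter-Glo 72 h after plating at 1000 cells per well onto 384-well plates holding 525 small-molecule inhibitors at five concentrations. Induction used 0.1 µg/mL doxycycline for 7 days. Each drug sensitivity score integrates the area under a fitted non-linear dose–response model.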

[1] abbreviates: shRNA: SND1 shRNA1 (SND1 silenced).
The mark [2] stands for this setting: shRNA: SND1 shRNA2 (SND1 silenced).
Where [3] appears, read: shRNA: control shRNA (non-targeting).

`Nc1ccn([C@@H]2O[C@H](CO)[C@@H](O)[C@@H]2O)c(=O)n1` [Cytarabine]: the drug sensitivity score came to 5.4 DSS under setting [1], 0 DSS under setting [2] and 3.6 DSS under setting [3].

`CC(C)(C)c1nc(-c2cccc(NS(=O)(=O)c3c(F)cccc3F)c2F)c(-c2ccnc(N)n2)s1` [Dabrafenib]: the drug sensitivity score reads like this: under setting [1], 0 DSS; under setting [3], 0 DSS.

Regarding `CN(C)/N=N/c1[nH]cnc1C(N)=O` [Dacarbazine], the drug sensitivity score runs as follows: under setting [1], 0 DSS; under setting [2], 1.9 DSS; under setting [3], 0.7 DSS.

Regarding `COc1cc2ncnc(Nc3ccc(F)c(Cl)c3)c2cc1NC(=O)/C=C/CN1CCCCC1` [Dacomitinib], the drug sensitivity score was 3.3 DSS under setting [1], 7 DSS under setting [2] and 10.2 DSS under setting [3].

Consider `Cc1c2oc3c(C)ccc(C(=O)N[C@@H]4C(=O)N[C@H](C(C)C)C(=O)N5CCC[C@H]5C(=O)N(C)CC(=O)N(C)[C@@H](C(C)C)C(=O)O[C@@H]4C)c3nc-2c(C(=O)N[C@@H]2C(=O)N[C@H](C(C)C)C(=O)N3CCC[C@H]3C(=O)N(C)CC(=O)N(C)[C@@H](C(C)C)C(=O)O[C@@H]2C)c(N)c1=O` [Dactinomycin], for which the drug sensitivity score runs as follows: under setting [1], 24.3 DSS; under setting [2], 24 DSS; under setting [3], 26.8 DSS.

As for `Cn1c(=O)n(-c2ccc(C(C)(C)C#N)cc2)c2c3cc(-c4cnc5ccccc5c4)ccc3ncc21` [Dactolisib], the drug sensitivity score stood at 17.8 DSS under setting [1], 17.8 DSS under setting [2] and 11.3 DSS under setting [3].

As to `CO[C@@H](C(=O)N1Cc2[nH]nc(NC(=O)c3ccc(N4CCN(C)CC4)cc3)c2C1)c1ccccc1` [Danusertib], the drug sensitivity score under setting [1] is 6.5 DSS, the drug sensitivity score under setting [2] amounted to 4.7 DSS and the drug sensitivity score under setting [3] amounted to 4.9 DSS.

Turning to `O=C(/C=C/c1cccnc1)NCCCCC1CCN(C(=O)c2ccccc2)CC1` [Daporinad], the drug sensitivity score under setting [1] worked out at 28.1 DSS and the drug sensitivity score under setting [3] turned out to be 27.8 DSS.

`CCN(CC)CCN(Cc1ccc(-c2ccc(C(F)(F)F)cc2)cc1)C(=O)Cn1c(SCc2ccc(F)cc2)nc(=O)c2c1CCC2` [Darapladib]: the drug sensitivity score by setting is: under setting [1], 0.1 DSS; under setting [2], 0 DSS; under setting [3], 5.8 DSS.

Take `Cc1nc(Nc2ncc(C(=O)Nc3c(C)cccc3Cl)s2)cc(N2CCN(CCO)CC2)n1` [Dasatinib]: the drug sensitivity score under setting [1] was found to be 0.5 DSS, the drug sensitivity score under setting [2] is 6.2 DSS and the drug sensitivity score under setting [3] worked out at 2.1 DSS.

For `COc1cccc2c1C(=O)c1c(O)c3c(c(O)c1C2=O)C[C@@](O)(C(C)=O)C[C@@H]3O[C@H]1C[C@H](N)[C@H](O)[C@H](C)O1` [Daunorubicin], the drug sensitivity score under setting [1] came to 9.5 DSS, the drug sensitivity score under setting [2] is 7.3 DSS and the drug sensitivity score under setting [3] was 10 DSS.

Regarding `Nc1ncn([C@H]2C[C@H](O)[C@@H](CO)O2)c(=O)n1` [Decitabine], the drug sensitivity score reads like this: under setting [1], 11 DSS; under setting [2], 8.2 DSS; under setting [3], 5.5 DSS.

On to `CC(=O)N(O)CCCCCNC(=O)CCC(=O)N(O)CCCCCNC(=O)CCC(=O)N(O)CCCCCN` [Deferoxamine], for which the drug sensitivity score reads like this: under setting [1], 8 DSS; under setting [3], 6.1 DSS.

Regarding `C[C@@H]1C[C@H]2[C@@H]3CCC4=CC(=O)C=C[C@]4(C)[C@@]3(F)[C@@H](O)C[C@]2(C)[C@@]1(O)C(=O)CO` [Dexamethasone], the drug sensitivity score amounted to 0 DSS under setting [1], 1.8 DSS under setting [2] and 1.3 DSS under setting [3].

In the case of `CCc1cnn2c(NCc3ccc[n+]([O-])c3)cc(N3CCCC[C@H]3CCO)nc12` [Dinaciclib], the drug sensitivity score reads like this: under setting [1], 18.1 DSS; under setting [2], 15.8 DSS; under setting [3], 20.1 DSS.

Regarding `CCN(CC)C(=S)SSC(=S)N(CC)CC` [Disulfiram], the drug sensitivity score is, setting by setting: under setting [1], 29.7 DSS; under setting [3], 28.6 DSS.

Turning to `CC(=O)O[C@@]12CO[C@@H]1C[C@H](O)[C@@]1(C)C(=O)[C@H](O)C3=C(C)[C@@H](OC(=O)[C@H](O)[C@@H](NC(=O)OC(C)(C)C)c4ccccc4)C[C@@](O)([C@@H](OC(=O)c4ccccc4)[C@H]21)C3(C)C` [Docetaxel], the drug sensitivity score by setting is: under setting [1], 18.1 DSS; under setting [2], 16.5 DSS; under setting [3], 19 DSS.

Regarding `Cc1ccc(-n2nc(C(C)(C)C)cc2NC(=O)Nc2ccc(OCCN3CCOCC3)c3ccccc23)cc1` [Doramapimod], the drug sensitivity score is, setting by setting: under setting [1], 4.1 DSS; under setting [2], 5.5 DSS; under setting [3], 6 DSS.

In the case of `CN1CCN(c2ccc3nc(-c4c(N)c5c(F)cccc5[nH]c4=O)[nH]c3c2)CC1` [Dovitinib], the drug sensitivity score by setting is: under setting [1], 0.1 DSS; under setting [2], 0 DSS; under setting [3], 0 DSS.

In the case of `COc1cccc2c1C(=O)c1c(O)c3c(c(O)c1C2=O)C[C@@](O)(C(=O)CO)C[C@@H]3O[C@H]1C[C@H](N)[C@H](O)[C@H](C)O1` [Doxorubicin], the drug sensitivity score runs as follows: under setting [1], 4.5 DSS; under setting [2], 4.1 DSS; under setting [3], 4.1 DSS.

For `C[C@H](Nc1ncnc2nc[nH]c12)c1cc2cccc(Cl)c2c(=O)n1-c1ccccc1` [Duvelisib], the drug sensitivity score turned out to be 0.6 DSS under setting [1], 3 DSS under setting [2] and 5.5 DSS under setting [3].

Regarding `Cc1cc(Nc2cc(N3CCN(C)CC3)nc(/C=C/c3ccccc3)n2)n[nH]1` [ENMD-2076], the drug sensitivity score is, setting by setting: under setting [1], 11.9 DSS; under setting [2], 10.7 DSS; under setting [3], 12 DSS.

As to `Cc1cc(C)c(CNC(=O)c2cc(-c3ccc(CN4CCOCC4)cc3)cc3c2cnn3C2CCCC2)c(=O)[nH]1` [EPZ-5687], the drug sensitivity score reads like this: under setting [1], 0 DSS; under setting [2], 0 DSS; under setting [3], 0 DSS.

Take `COC(=O)N[C@@H](C)CNc1nccc(-c2cn(C(C)C)nc2-c2cc(Cl)cc(NS(C)(=O)=O)c2F)n1` [Encorafenib]: the drug sensitivity score is 0 DSS under setting [1] and 1.6 DSS under setting [3].

Consider `Nc1ccccc1NC(=O)c1ccc(CNC(=O)OCc2cccnc2)cc1` [Entinostat], for which the drug sensitivity score under setting [1] worked out at 5.3 DSS, the drug sensitivity score under setting [2] was 2.6 DSS and the drug sensitivity score under setting [3] came to 2.8 DSS.

Regarding `c1cn2cc(-c3ccc4cn[nH]c4c3)nc(Nc3ccc(N4CCOCC4)cc3)c2n1` [Entospletinib], the drug sensitivity score is 0 DSS under setting [1], 0 DSS under setting [2] and 0 DSS under setting [3].

Turning to `CNC(=O)c1ccc(N2C(=S)N(c3ccc(C#N)c(C(F)(F)F)c3)C(=O)C2(C)C)cc1F` [Enzalutamide], the drug sensitivity score by setting is: under setting [1], 0 DSS; under setting [2], 1.3 DSS; under setting [3], 0 DSS.

On to `Cn1cc(C2=C(c3cn(C4CCN(Cc5ccccn5)CC4)c4ccccc34)C(=O)NC2=O)c2ccccc21` [Enzastaurin], for which the drug sensitivity score under setting [1] worked out at 4.1 DSS, the drug sensitivity score under setting [2] turned out to be 0 DSS and the drug sensitivity score under setting [3] worked out at 1.4 DSS.

`NS(=O)(=O)NCCNc1nonc1/C(=N/O)Nc1ccc(F)c(Br)c1` [Epacadostat] gave a drug sensitivity score under setting [1] of 0 DSS, a drug sensitivity score under setting [2] of 1.5 DSS and a drug sensitivity score under setting [3] of 0.1 DSS.

Take `C#Cc1cccc(Nc2ncnc3cc(OCCOC)c(OCCOC)cc23)c1` [Erlotinib]: the drug sensitivity score runs as follows: under setting [1], 2.6 DSS; under setting [2], 2.5 DSS; under setting [3], 2.4 DSS.

Consider `C[C@]12CC[C@@H]3c4ccc(OC(=O)N(CCCl)CCCl)cc4CC[C@H]3[C@@H]1CC[C@@H]2O` [Estramustine], for which the drug sensitivity score was 0 DSS under setting [1] and 0 DSS under setting [3].

In the case of `COc1cc([C@@H]2c3cc4c(cc3[C@@H](O[C@@H]3O[C@@H]5CO[C@@H](C)O[C@H]5[C@H](O)[C@H]3O)[C@H]3COC(=O)[C@H]23)OCO4)cc(OC)c1O` [Etoposide], the drug sensitivity score reads like this: under setting [1], 3.1 DSS; under setting [2], 0.4 DSS; under setting [3], 3.3 DSS.

For `CO[C@H]1C[C@@H]2CC[C@@H](C)[C@@](O)(O2)C(=O)C(=O)N2CCCC[C@H]2C(=O)O[C@H]([C@H](C)C[C@@H]2CC[C@@H](OCCO)[C@H](OC)C2)CC(=O)[C@H](C)/C=C(\C)[C@@H](O)[C@@H](OC)C(=O)[C@H](C)C[C@H](C)/C=C/C=C/C=C/1C` [Everolimus], the drug sensitivity score came out at 7.5 DSS under setting [1] and 0.4 DSS under setting [3].

Regarding `C=C1C[C@@H]2[C@H](CC[C@]3(C)C(=O)CC[C@@H]23)[C@@]2(C)C=CC(=O)C=C12` [Exemestane], the drug sensitivity score reads like this: under setting [1], 3.1 DSS; under setting [2], 3 DSS; under setting [3], 4.6 DSS.

With `Cc1nc(C(=O)NCC(=O)O)c(O)c2ccc(Oc3ccccc3)cc12` [FG-4592], the drug sensitivity score is 4.8 DSS under setting [1], 1 DSS under setting [2] and 2.5 DSS under setting [3].

`CCn1c(=O)c(-c2ccc(Cl)cc2Cl)cc2cnc(Nc3ccc(N4CCNCC4)c(F)c3)nc21` [FRAX486]: the drug sensitivity score stood at 5 DSS under setting [1], 4.8 DSS under setting [2] and 8.5 DSS under setting [3].

For `O=S(=O)(c1cccc2cnccc12)N1CCCNCC1` [Fasudil], the drug sensitivity score was determined as 3.1 DSS under setting [1], 3 DSS under setting [2] and 6 DSS under setting [3].

On to `Cc1cnc(Nc2ccc(OCCN3CCCC3)cc2)nc1Nc1cccc(S(=O)(=O)NC(C)(C)C)c1` [Fedratinib], for which the drug sensitivity score reads like this: under setting [1], 5.8 DSS; under setting [2], 6.5 DSS; under setting [3], 5.8 DSS.

In the case of `CON(C)C(=O)N1N=C(c2cc(F)ccc2F)S[C@@]1(CCCN)c1ccccc1` [Filanesib], the drug sensitivity score under setting [1] worked out at 16.8 DSS, the drug sensitivity score under setting [2] is 16 DSS and the drug sensitivity score under setting [3] came to 16.7 DSS.
